Experimental data reported in US5736629A, “Herbicide resistant rice” (priority 1997, dated 1998).

Experiments:
[1] = test system: rice line ATCC 75295 (first resistance mechanism only); assay: Greenhouse test of plant vigor after imazethapyr, ATCC 75295; type: in vivo; conditions: for Rating of rice plant vigor: 36 days after treatment at 2-3 leaf stage, 10-point scale, 0 = dead plant, 10 = no visible injury
Text: (§1) In the greenhouse tests, pots were planted with F3 seed from crosses between the two lines. Each pot was planted with seed from a single panicle from a single plant; each pot was therefore the equivalent of a headrow. A total of 140 pots were planted in this manner, along with 40 pots of various non-resistant genotypes for comparison. Imazethapyr was applied at the 2-3 leaf stage two weeks after planting, at rates equivalent to 0.063 lb. active ingredient (a.i.) per acre, 0.125 lb. a.i./acre, and 0.313 lb. a.i./acre.
(§2) Table 2 summarizes measurements taken 36 days after spraying rice at the 2-3 leaf stage of development.

[2] = test system: Resistant F3 Hybrid of ATCC 75295 and ATCC 97523; assay: Greenhouse test of plant vigor after imazethapyr, resistant F3 hybrid; type: in vivo, rice; conditions: for Rating of rice plant vigor: 36 days after treatment at 2-3 leaf stage, 10-point scale, 0 = dead plant, 10 = no visible injury
Text: as §1
Because the material being tested was an F3 population, with genes still segregating, individual plants had different levels of resistance. At the time this patent application is being filed, there had not been sufficient time to raise rice lines that were demonstrably homozygous for both resistance mechanisms. Raising such demonstrably homozygous lines will be routine for one of ordinary skill in the art, but will require additional time.
as §2

ATCC 75295 rice line = assay: Field plot test with AHAS-inhibiting herbicides, ATCC 75295; type: in vivo
Experimental: The resistance of these plants to several other AHAS-inhibiting herbicides was also tested. Nine-foot-long field plots were planted with seven rows of rice per plot. The test included nine check rice varieties, and the ATCC 75295 rice line. A shielded spray boom was used to apply herbicide, spraying six of the seven rows in each plot. The four herbicides used were Pursuit (imazethapyr: (±)-2-[4,5-dihydro-4-methyl-4-(1-methylethyl)-5-oxo-1H-imidazol-2-yl]-5-ethyl-3-pyridinecarboxylic acid); Scepter (imazaquin: 2-[4,5-dihydro-4-methyl-4-(1-methylethyl)-5-oxo-1H-imidazol-2-yl]-3-quinolinecarboxylic acid); Accent (nicosulfuron: 2-(((((4,6-dimethoxypyrimidin-2-yl)aminocarbonyl)) aminosulfonyl))-N,N-dimethyl-3-pyridinecarboxamide); and Beacon (primisulfuron: 3-[4,6-bis(difluoromethoxy)-pyrimidin-2-yl]-1-(2-methoxycarbonylphenylsulfonyl)urea). The herbicides were applied to two replicate plots for each herbicide when the rice was at the three-leaf stage of maturity. Two replicate plots of each check variety and of the resistant line were left unsprayed as controls. The Accent treatment used 0.67 ounce of product (0.50 ounce active ingredient) per acre, with 0.25% nonionic surfactant. The Pursuit treatment used four ounces of product (1.00 ounce active ingredient) per acre, with 0.25% nonionic surfactant. The Scepter treatment used one pint of product (3.00 ounces active ingredient) per acre, with 0.25% nonionic surfactant. The Beacon treatment used 0.76 ounce of product (0.57 ounce active ingredient) per acre, with 0.25% nonionic surfactant. […] A similar test with the same rice varieties and the ATCC 75295 line was conducted at the five-leaf stage of development (i.e., plants fifteen days older than in the test described above), using Accent and Pursuit at the rates given above. […] The ATCC 75295 line was resistant only when herbicide was applied post-emergence.

[3] = test system: resistant progeny row (rice line ATCC 75295); assay: Open-field spray screen of anther-culture progeny rows, resistant row; type: in vivo
Experimental: This resistant line was derived by conducting anther culture on the F2 progeny of a backcross made by pollinating a rice plant of the variety "Lemont" with pollen from the rice variety "Mercury," followed by a backcross using pollen from this hybrid to pollinate a plant of the variety "Mercury." The resulting backcross is described as Mercury//Lemont/Mercury. Anthers collected from a plant resulting from this backcross were plated on callus induction medium, and the resulting calli were transferred to plant regeneration media. The procedures used were generally as described in Croughan and Chu, "Rice (Oryza saliva L.): Establishment of Callus Cultures and the Regeneration of Plants" in Bajaj (Ed.), "Biotechnology in Agriculture and Forestry," pp. 19-37 (1991). Several regenerated plants were produced and grown to maturity in a greenhouse to produce seed. Progeny seed were planted in an open field, and herbicide applications were made using a garden tractor-mounted spray rig.
A set of 4,193 progeny rows derived from this anther culture procedure were planted in an open field, and were sprayed with 4 ounces per acre of Pursuit (1.00 ounce active ingredient imazethapyr per acre) at the four-leaf stage of seedling development. […]

SMILES: CCc1cnc(C2=NC(C)(C(C)C)C(=O)N2)c(C(=O)O)c1 (racemic) [imazethapyr, (±)-2-[4,5-dihydro-4-methyl-4-(1-methylethyl)-5-oxo-1H-imidazol-2-yl]-5-ethyl-3-pyridinecarboxylic acid]
- Rating of rice plant vigor ([1]; 0.063 lb. a.i./acre): 0.61 ± 0.03
- Rating of rice plant vigor ([1]; 0.125 lb. a.i./acre): 0.81 ± 0.45
- Rating of rice plant vigor ([1]; 0.313 lb. a.i./acre): about 0.6
- Rating of rice plant vigor ([1]; 0.313 lb. a.i./acre, listed as Imazethapyr): 0.55 ± 0.55
- Time to visible resumption of growth after herbicide application ([1]; ATCC 75295 plants, greenhouse test): about three weeks
- Visible injury (in words) ([1]; plants with only the first resistance mechanism, 0.313 lb a.i./acre, 36 days after treatment): substantial injury
- Rating of rice plant vigor ([2]; 0.063 lb. a.i./acre): 10
- Rating of rice plant vigor ([2]; 0.125 lb. a.i./acre): 10
- Rating of rice plant vigor ([2]; 0.313 lb. a.i./acre): 10
- Tolerance (in words) ([2]; F3 plants that inherited both resistance mechanisms, up to 0.313 lb. a.i. per acre): tolerance to all levels of herbicide tested
- Visible injury (in words) ([2]; plants with both resistance mechanisms, 0.313 pounds active ingredient per acre, 36 days after treatment): no visible injury
- Time to visible resumption of growth after herbicide application ([2]; resistant F3 plants, greenhouse test): about a week
- Resistance of the rice line (in words) (ATCC 75295 rice line; five-leaf stage (plants fifteen days older), same rates as in the three-leaf test): good resistance
- Resistance of the rice line (in words) (ATCC 75295 rice line; three-leaf stage, per acre a.i.: Accent 0.50 ounce, Pursuit 1.00 ounce, Scepter 3.00 ounces, Beacon 0.57 ounce, 0.25% nonionic surfactant): good resistance
- Symptoms (in words) ([3]; 4 ounces per acre Pursuit (1.00 ounce a.i. per acre), four-leaf stage, open field): no apparent symptoms
- Symptoms (in words) ([3]; second spray 8 ounces/acre Pursuit (2.00 ounce a.i. per acre), four weeks after the initial treatment): no apparent symptoms
